Experiment [1] has as its target hCA XII (Homo sapiens, UniProt O43570). Kind of experiment: Stopped-flow CA catalysed CO2 hydration inhibition assay, hCA XII. In kind it is biochemical.
Experiment [2] has as its target hCA IX (Homo sapiens, UniProt Q16790). Kind of experiment: biochemical.
The target of experiment [3] is hCA I (Homo sapiens, UniProt P00915). Kind of experiment: Stopped-flow CA catalysed CO2 hydration inhibition assay, hCA I. Type of experiment: biochemical.
Experiment [4] deals with hCA II (Homo sapiens, UniProt P00918). Kind of experiment: Stopped-flow CA catalysed CO2 hydration inhibition assay, hCA II. In kind it is biochemical.

hCA I, sequence (P00915 whole entry): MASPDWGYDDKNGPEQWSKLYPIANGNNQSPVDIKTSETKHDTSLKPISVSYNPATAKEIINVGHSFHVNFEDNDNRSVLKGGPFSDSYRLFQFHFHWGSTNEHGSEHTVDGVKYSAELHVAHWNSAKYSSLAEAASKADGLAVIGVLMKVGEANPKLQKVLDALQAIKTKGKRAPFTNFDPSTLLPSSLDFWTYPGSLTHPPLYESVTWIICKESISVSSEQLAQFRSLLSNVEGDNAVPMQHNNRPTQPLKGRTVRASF
hCA XII, sequence (O43570 30-289 limits assumed): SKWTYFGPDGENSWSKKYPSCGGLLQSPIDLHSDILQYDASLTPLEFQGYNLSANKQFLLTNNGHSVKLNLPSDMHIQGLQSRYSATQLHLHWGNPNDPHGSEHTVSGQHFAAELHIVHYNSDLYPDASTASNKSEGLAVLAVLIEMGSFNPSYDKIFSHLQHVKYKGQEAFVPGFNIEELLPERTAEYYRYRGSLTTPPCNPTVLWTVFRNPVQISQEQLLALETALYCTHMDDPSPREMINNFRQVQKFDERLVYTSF

`Cc1c(CC(=O)O)c(=O)oc2c(C)c3occ(-c4ccc(F)cc4F)c3cc12` [EMAC10164h, 2-(3-(2,4-Difluorophenyl)-5,9-dimethyl-7-oxo-7H-furo[3,2-g]chromen-6-yl)acetic acid]: the Ki in experiment [1] is 6.37 µM; in experiment [2], 4.27 µM; in experiment [3] it was more than 100 µM; in experiment [4], more than 100 µM.

As to `COC(=O)Cc1c(C)c2ccc(OCC(=O)c3ccc(Br)cc3)c(C)c2oc1=O` [EMAC10163c, Methyl 2-(7-(2-(4-bromophenyl)-2-oxoethoxy)-4,8-dimethyl-2-oxo-2H-chromen-3-yl)acetate], the Ki in experiment [1] was 5.43 µM; in experiment [2], 4.16 µM; in experiment [3] it was more than 100 µM; in experiment [4], more than 100 µM.

`Cc1ccc(-c2coc3c(C)c4oc(=O)c(CC(=O)O)c(C)c4cc23)cc1` [EMAC10164a, 2-(5,9-Dimethyl-7-oxo-3-(p-tolyl)-7H-furo[3,2-g]chromen-6-yl)acetic acid]: the Ki in experiment [1] is 4.09 µM; in experiment [2], more than 100 µM; in experiment [3], more than 100 µM; in experiment [4] it was more than 100 µM.

In the case of `Cc1c(CC(=O)O)c(=O)oc2c(C)c3occ(-c4ccccc4)c3cc12` [EMAC10164i, 2-(5,9-Dimethyl-7-oxo-3-phenyl-7H-furo[3,2-g]chromen-6-yl)acetic acid], the Ki in experiment [1] is 3.38 µM; in experiment [2] it was 3.18 µM; in experiment [3] it was more than 100 µM; in experiment [4] it was more than 100 µM.

On to `COC(=O)Cc1c(C)c2ccc(OCC(=O)c3ccc(F)cc3F)c(C)c2oc1=O` [EMAC10163h, Methyl 2-(7-(2-(2,4-difluorophenyl)-2-oxoethoxy)-4,8-dimethyl-2-oxo-2H-chromen-3-yl)acetate], for which the Ki in experiment [1] was 5.56 µM; in experiment [2], 4.51 µM; in experiment [3], more than 100 µM; in experiment [4], more than 100 µM.

Regarding `COC(=O)Cc1c(C)c2ccc(OCC(=O)c3ccc(OC)cc3)c(C)c2oc1=O` [EMAC10163b, Methyl 2-(7-(2-(4-methoxyphenyl)-2-oxoethoxy)-4,8-dimethyl-2-oxo-2H-chromen-3-yl)acetate], the Ki is 0.47 µM in experiment [1], 0.53 µM in experiment [2], more than 100 µM in experiment [3] and more than 100 µM in experiment [4].

As for `COC(=O)Cc1c(C)c2ccc(OCC(=O)c3ccccc3)c(C)c2oc1=O` [EMAC10163i, Methyl 2-(4,8-dimethyl-2-oxo-7-(2-oxo-2-phenylethoxy)-2H-chromen-3-yl)acetate], the Ki is 5.25 µM in experiment [1], more than 100 µM in experiment [2], more than 100 µM in experiment [3] and more than 100 µM in experiment [4].

Turning to `COC(=O)Cc1c(C)c2ccc(OCC(=O)c3ccc(C)cc3)c(C)c2oc1=O` [EMAC10163a, Methyl 2‐{4,8‐dimethyl‐7‐[2‐(4‐methylphenyl)‐2‐oxoethoxy]‐2‐oxo‐2H‐chromen‐3‐yl}acetate], the Ki was 2.52 µM in experiment [1], 2.98 µM in experiment [2], more than 100 µM in experiment [3] and more than 100 µM in experiment [4].

For `COC(=O)Cc1c(C)c2ccc(OCC(=O)c3ccc(Cl)cc3)c(C)c2oc1=O` [EMAC10163j, Methyl 2-(7-(2-(4-chlorophenyl)-2-oxoethoxy)-4,8-dimethyl-2-oxo-2H-chromen-3-yl)acetate], the inhibition constant (Ki) is 2.41 µM in experiment [1], more than 100 µM in experiment [2], more than 100 µM in experiment [3] and more than 100 µM in experiment [4].

As for `COC(=O)Cc1c(C)c2ccc(OCC(=O)c3ccc(F)cc3)c(C)c2oc1=O` [EMAC10163d, Methyl 2-(7-(2-(4-fluorophenyl)-2-oxoethoxy)-4,8-dimethyl-2-oxo-2H-chromen-3-yl)acetate], the Ki in experiment [1] was 6.04 µM; in experiment [2] it was 2.39 µM; in experiment [3], more than 100 µM; in experiment [4], more than 100 µM.

As to `COC(=O)Cc1c(C)c2ccc(OCC(=O)c3cccc(OC)c3)c(C)c2oc1=O` [EMAC10163k, Methyl 2-(7-(2-(3-methoxyphenyl)-2-oxoethoxy)-4,8-dimethyl-2-oxo-2H-chromen-3-yl)acetate], the inhibitory constant (Ki) in experiment [1] was 4.86 µM; in experiment [2] it was more than 100 µM; in experiment [3], more than 100 µM; in experiment [4], more than 100 µM.

For `Cc1c(CC(=O)O)c(=O)oc2c(C)c3occ(-c4ccc(-c5ccccc5)cc4)c3cc12` [EMAC10164g, 2-(3-([1,1′-Biphenyl]-4-yl)-5,9-dimethyl-7-oxo-7H-furo[3,2-g]chromen-6-yl)acetic acid], the Ki in experiment [1] was 0.82 µM; in experiment [2], 0.71 µM; in experiment [3], more than 100 µM; in experiment [4], more than 100 µM.

As to `COC(=O)Cc1c(C)c2ccc(OCC(=O)c3ccc([N+](=O)[O-])cc3)c(C)c2oc1=O` [EMAC10163e, Methyl 2-(4,8-dimethyl-7-(2-(4-nitrophenyl)-2-oxoethoxy)-2-oxo-2H-chromen-3-yl)acetate], the inhibition constant Ki is 7.84 µM in experiment [1], 4.64 µM in experiment [2], more than 100 µM in experiment [3] and more than 100 µM in experiment [4].

For `Cc1c(CC(=O)O)c(=O)oc2c(C)c3occ(-c4ccc(F)cc4)c3cc12` [EMAC10164d, 2-(3-(4-Fluorophenyl)-5,9-dimethyl-7-oxo-7H-furo[3,2-g]chromen-6-yl)acetic acid], the Ki in experiment [1] is 0.8 µM; in experiment [2], 0.46 µM; in experiment [3], more than 100 µM; in experiment [4], more than 100 µM.

Regarding `COC(=O)Cc1c(C)c2ccc(OCC(=O)c3cccc([N+](=O)[O-])c3)c(C)c2oc1=O` [EMAC10163f, Methyl 2-(4,8-dimethyl-7-(2-(3-nitrophenyl)-2-oxoethoxy)-2-oxo-2H-chromen-3-yl)acetate], the Ki is 7.82 µM in experiment [1], more than 100 µM in experiment [2], more than 100 µM in experiment [3] and more than 100 µM in experiment [4].

With `Cc1c(CC(=O)O)c(=O)oc2c(C)c3occ(-c4ccc(Br)cc4)c3cc12` [EMAC10164c, 2-(3-(4-Bromophenyl)-5,9-dimethyl-7-oxo-7H-furo[3,2-g]chromen-6-yl)acetic acid], the Ki in experiment [1] is 4.44 µM; in experiment [2], more than 100 µM; in experiment [3], more than 100 µM; in experiment [4] it was more than 100 µM.

As for `Cc1c(CC(=O)O)c(=O)oc2c(C)c3occ(-c4ccc(Cl)cc4)c3cc12` [EMAC10164j, 2-(3-(4-Chlorophenyl)-5,9-dimethyl-7-oxo-7H-furo[3,2-g]chromen-6-yl)acetic acid], the Ki in experiment [1] was 7.86 µM; in experiment [2], 3.22 µM; in experiment [3], more than 100 µM; in experiment [4], more than 100 µM.

For `COC(=O)Cc1c(C)c2ccc(OCC(=O)c3ccc(-c4ccccc4)cc3)c(C)c2oc1=O` [EMAC10163g, Methyl 2-(7-(2-([1,1′-biphenyl]-4-yl)-2-oxoethoxy)-4,8-dimethyl-2-oxo-2H-chromen-3-yl)acetate], the Ki is 8.88 µM in experiment [1], more than 100 µM in experiment [2], more than 100 µM in experiment [3] and more than 100 µM in experiment [4].

Regarding `COc1cccc(-c2coc3c(C)c4oc(=O)c(CC(=O)O)c(C)c4cc23)c1` [EMAC10164k, 2-(3-(3-Methoxyphenyl)-5,9-dimethyl-7-oxo-7H-furo[3,2-g]chromen-6-yl)acetic acid], the inhibitory constant (Ki) was 3.66 µM in experiment [1], 4.16 µM in experiment [2], more than 100 µM in experiment [3] and more than 100 µM in experiment [4].

In the case of `COc1ccc(-c2coc3c(C)c4oc(=O)c(CC(=O)O)c(C)c4cc23)cc1` [EMAC10164b, 2-(3-(4-Methoxyphenyl)-5,9-dimethyl-7-oxo-7H-furo[3,2-g]chromen-6-yl)acetic acid], the Ki was 4.59 µM in experiment [1], more than 100 µM in experiment [2], more than 100 µM in experiment [3] and more than 100 µM in experiment [4].
